Results published in patent US20230066946A1, “1,5-DIPHENYLPYRAZOLYL-3-OXYALKYL ACIDS AND 1-PHENYL-5-THIENYLPYRAZOLYL-3-OXYALKYL ACIDS AND THE USE THEREOF FOR CONTROL OF UNWANTED PLANT GROWTH” (Bayer Aktiengesellschaft, priority 2019, published 2023).

How the values were obtained:
AMARE [1] = test: Pre-emergence herbicidal action against AMARE; type: in vivo, Amaranthus retroflexus; settings: scored visually after about 3 weeks vs untreated controls; for Pre-emergence action against AMARE in %: 1280 g/ha; for Pre-emergence action at 320 g/ha against AMARE in %: 100% = plants have died, 0% = like control plants
Outline: (§1)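 Visual percent activity (100% = plants dead, 0% = like control) scored about 3 weeks after pre-emergence treatment in greenhouse. Compounds as WP or EC, applied to covering soil surface with 0.5% additive, 600 L/ha water, at 1280 or 320 g/ha.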

VIOTR [2] = test: Pre-emergence herbicidal action against VIOTR; type: in vivo, Viola tricolor; settings: 1280 g/ha, scored visually after about 3 weeks vs untreated controls
Excerpt: (§2) Seeds of mono- and dicotyledonous weed plants are placed in plastic pots in sandy loam soil (doubly sown with one species each of mono- or dicotyledonous weed plants per pot) and covered with soil. The compounds of the invention, formulated in the form of wettable powders (WP) or as emulsion concentrates (EC), are then applied onto the surface of the covering soil as aqueous suspension or emulsion with addition of 0.5% additive at a water application rate equivalent to 600 litres per hectare. After the treatment, the pots are placed in a greenhouse and kept under good growth conditions for the trial plants. After about 3 weeks, the effect of the preparations is scored visually in comparison with untreated controls as percentages. For example, 100% activity=the plants have died, 0% activity=like control plants. [table] Tables 4.1-4.15 below show the effects of selected compounds of the general formula (I) according to Tables 1 to 3 on various harmful plants at an application rate corresponding to 1280 or 320 g/ha, which have been obtained by the aforementioned experimental method.

ALOMY = test: Post-emergence herbicidal action against ALOMY; type: in vivo, Alopecurus myosuroides; settings: 1280 g/ha, post-emergence at one-leaf stage, rated visually after about 3 weeks vs untreated controls
Procedure: (§3) [table] Seeds of mono- and dicotyledonous weed plants are placed in plastic pots in sandy loam soil (twin sowing with one species each of mono- or dicotyledonous weed plants per pot), covered with soil and cultivated in a greenhouse under controlled growth conditions. 2 to 3 weeks after sowing, the test plants are treated at the one-leaf stage. The compounds of the invention, formulated in the form of wettable powders (WP) or as emulsion concentrates (EC), are applied to the green parts of the plants as aqueous suspension or emulsion with addition of 0.5% additive at a water application rate equivalent to 600 litres per hectare. After the test plants have been kept in the greenhouse under optimum growth conditions for about 3 weeks, the activity of the preparations is rated visually in comparison to untreated controls. For example, 100% activity=the plants have died, 0% activity=like control plants. Tables 5.1-5.16 below show the effects of selected compounds of the general formula (I) according to Tables 1 to 3 on various harmful plants at an application rate corresponding to 1280 or 320 g/ha, which have been obtained by the aforementioned experimental method.

AVEFA = test: Post-emergence herbicidal action against AVEFA; type: in vivo, Avena fatua; settings: 1280 g/ha, post-emergence at one-leaf stage, rated visually after about 3 weeks vs untreated controls
Procedure: as §3

MATIN [3] = test: Post-emergence herbicidal action against MATIN; type: in vivo, Matricaria inodora; settings: visual rating about 3 weeks after treatment
Outline: (§4)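 Weeds grown in sandy loam under greenhouse conditions were sprayed at the one-leaf stage, 2-3 weeks after sowing. Compounds were applied as WP or EC formulations in water with 0.5% additive at 600 L/ha, at 1280 or 320 g/ha. Activity was rated visually about 3 weeks later against untreated controls (0-100%).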

PHBPU [4] = test: Post-emergence herbicidal action against PHBPU; type: in vivo, Pharbitis purpurea; settings: 320 g/ha, visual rating about 3 weeks after treatment
Outline: as §4

POLCO = test: Post-emergence herbicidal action against POLCO; type: in vivo, Polygonum convolvulus; settings: 320 g/ha, visual rating about 3 weeks after treatment
Outline: as §4

STEME [5] = test: Post-emergence herbicidal action against STEME; type: in vivo, Stellaria media; settings: visual rating about 3 weeks after treatment
Outline: as §4

VIOTR [6] = test: Post-emergence herbicidal action against VIOTR; type: in vivo, Viola tricolor; settings: 320 g/ha, visual rating about 3 weeks after treatment
Outline: as §4

VERPE [7] = test: Post-emergence herbicidal action against VERPE; type: in vivo, Veronica persica; settings: 320 g/ha, visual rating about 3 weeks after treatment
Outline: as §4

CYPES = test: Pre-emergence herbicidal action against CYPES; type: in vivo, Cyperus esculentus; settings: scored visually after about 3 weeks vs untreated controls, 100% = plants have died, 0% = like control plants
Excerpt: as §2

MATIN [8] = test: Pre-emergence herbicidal action against MATIN; type: in vivo, Matricaria inodora; settings: 1280 g/ha, scored visually after about 3 weeks vs untreated controls
Outline: as §1

AMARE [9] = test: Post-emergence herbicidal action against AMARE; type: in vivo, Amaranthus retroflexus; settings: visual rating about 3 weeks after treatment
Outline: as §4

ECHCG [10] = test: Pre-emergence herbicidal action against ECHCG; type: in vivo, Echinochloa crus-galli; settings: scored visually after about 3 weeks vs untreated controls, 100% = plants have died, 0% = like control plants
Outline: as §1

SETVI [11] = test: Pre-emergence herbicidal action against SETVI; type: in vivo, Setaria viridis; settings: 1280 g/ha, scored visually after about 3 weeks vs untreated controls
Outline: as §1

STEME [12] = test: Pre-emergence herbicidal action against STEME; type: in vivo, Stellaria media; settings: 1280 g/ha, scored visually after about 3 weeks vs untreated controls
Outline: as §1

VERPE [13] = test: Pre-emergence herbicidal action against VERPE; type: in vivo, Veronica persica; settings: 320 g/ha, scored visually after about 3 weeks vs untreated controls
Outline: as §1

ECHCG [14] = test: Post-emergence herbicidal action against ECHCG; type: in vivo, Echinochloa crus-galli; settings: 1280 g/ha, post-emergence at one-leaf stage, rated visually after about 3 weeks vs untreated controls
Outline: as §4

SETVI [15] = test: Post-emergence herbicidal action against SETVI; type: in vivo, Setaria viridis; settings: 1280 g/ha, post-emergence at one-leaf stage, rated visually after about 3 weeks vs untreated controls
Outline: as §4

harmful plants = test: Pre-emergence herbicidal action, summary of Tables 4.1-4.15; type: in vivo; settings: result in words
Outline: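 Percent herbicidal action (100% = plants dead, 0% = like controls) was assessed visually about 3 weeks after treatment. Application rates of 1280 or 320 g/ha were applied to the covering soil of freshly sown sandy-loam pots, in 600 l/ha water with 0.5% additive, before emergence.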

PHBPU [16] = test: Pre-emergence herbicidal action against PHBPU; type: in vivo, Pharbitis purpurea; settings: 1280 g/ha, scored visually after about 3 weeks vs untreated controls
Excerpt: as §2

Structure (SMILES) | Pre-emergence action against AMARE in % (AMARE [1]) | Pre-emergence action against VIOTR in % (VIOTR [2]) | Post-emergence action against ALOMY in % (ALOMY) | Post-emergence action against AVEFA in % (AVEFA) | Post-emergence action against MATIN in % (MATIN [3]; 320 g/ha) | Post-emergence action against MATIN in % (MATIN [3]; 1280 g/ha) | Post-emergence action against PHBPU in % (PHBPU [4]) | Post-emergence action against POLCO in % (POLCO) | Post-emergence action against STEME in % (STEME [5]; 1280 g/ha) | Post-emergence action against VIOTR in % (VIOTR [6]) | Post-emergence action against VERPE in % (VERPE [7]) | Pre-emergence action at 1280 g/ha against CYPES in % (CYPES) | Pre-emergence action at 320 g/ha against AMARE in % (AMARE [1]) | Pre-emergence action against MATIN in % (MATIN [8]) | Post-emergence action against AMARE in % (AMARE [9]; 320 g/ha) | Post-emergence action against AMARE in % (AMARE [9]; 1280 g/ha) | Post-emergence action against STEME in % (STEME [5]; 320 g/ha) | Pre-emergence action at 1280 g/ha against ECHCG in % (ECHCG [10]) | Pre-emergence action against SETVI in % (SETVI [11]) | Pre-emergence action against STEME in % (STEME [12]) | other results
COC(=O)COc1nn(-c2cccc(Cl)c2)c(-c2ccc(F)c(F)c2)c1C#N [I-051] | 90% | 90% | 80% | 80% | 90% | 90% | 80% | 80% | 80% | 90% | 80% |  |  |  |  |  |  |  |  |  | 
COC(=O)COc1nn(-c2cccc(F)c2)c(-c2ccc(F)cc2)c1C#N [I-012] | 100% |  |  | 80% |  |  | 80% |  | 80% | 80% |  | 100% | 100% | 100% | 80% | 80% | 80% |  |  |  | 
COC(=O)COc1nn(-c2ccccc2F)c(-c2ccccc2)c1C#N [I-022] | 100% | 90% | 80% | 80% | 80% | 80% |  | 80% | 80% |  | 80% | 100% | 100% | 90% | 80% | 80% | 80% | 80% | 100% | 90% | Pre-emergence action against VERPE in % (VERPE [13]): 100%; Post-emergence action against ECHCG in % (ECHCG [14]): 80%; Post-emergence action against SETVI in % (SETVI [15]): 80%; herbicidal efficacy against harmful plants in the case of pre-emergence treatment (harmful plants): good herbicidal efficacy
COC(=O)COc1nn(-c2ccccc2F)c(-c2ccccc2)c1Cl [I-015] | 90% |  |  |  | 90% | 90% | 80% |  |  |  | 90% |  | 90% | 90% | 80% | 80% |  |  | 90% | 90% | Pre-emergence action against PHBPU in % (PHBPU [16]): 100%; Pre-emergence action against VERPE in % (VERPE [13]): 90%
C#Cc1c(OCC(=O)OC)nn(-c2cccc(F)c2)c1-c1cccc(F)c1 [I-069] | 90% | 100% |  |  |  |  | 80% |  | 80% |  |  |  | 90% | 90% |  | 90% |  | 80% | 90% | 90% | Pre-emergence action against PHBPU in % (PHBPU [16]): 80%; herbicidal efficacy against harmful plants in the case of pre-emergence treatment (harmful plants): good herbicidal efficacy
